Reference: article PMC11253567, “Drug repurposing of pyrazolotriazine derivatives as potential anti-SARS-CoV-2 agents: in vitro and in silico studies” (BMC Chemistry, 2024)
“And” between values parts separate entries of the source, which are not always exact repeats. Equal values may be shown once. Read-outs that look alike come from different tables or passages of the source.

What was measured:
[1] = system: SARS-CoV-2 (hCoV-19/Egypt/NRC-03/2020); details: cited from earlier work
[2] = in vitro; details: African green monkey
[3] = system: SARS-CoV-2 (hCoV-19/Egypt/NRC-03/2020); assay: Inhibitory concentration 50 (IC50) determination, crystal violet CPE assay in VERO-E6 cells; details: for IC50: 50% reduction of virus-induced CPE
[4] = system: VERO-E6 cells; details: African green monkey
[5] = system: VERO-E6 cells; details: cited from earlier work
[6] = standard reference drug, SARS-CoV-2
[7] = Severe acute respiratory syndrome coronavirus 2, Vero C1008, SARS-CoV-2 in VERO-E6 cells

Row | SMILES | CC50 [2] | IC50 ([3]; SARS-CoV-2 in VERO-E6 cells) | SI (CC50/IC50) [3] | IC50 [3, 7] | also measured
1 | CCN(CC)CCCC(C)Nc1ccnc2cc(Cl)ccc12 (stereo not drawn) [Chloroquine] |  |  |  |  | IC50 [1, 6]: 24.9 µM
2 | CCOC(=O)c1cnn2c(-c3ccccc3)nc(NCc3ccccc3)nc12 [Compound 1] | 463 µM | 2.4 µM | 190 and 192.8 | 2.45 µM | 
3 | CCOC(=O)c1cnn2c(-c3ccc(Br)cc3)nc(NCc3ccccc3)nc12 [Compound 2] | 445 µM | 11.2 µM | 39.7 | 11.2 µM | 
4 | CCOC(=O)c1cnn2c(-c3ccc(Cl)cc3)nc(NCc3ccccc3)nc12 [Compound 3] | 88.1 µM | 17.8 µM | 4.9 | 17.8 µM | CC50 [4]: 88 µM
5 | CCOC(=O)c1cnn2c(-c3ccccc3)nc(N3CCCCC3)nc12 [Compound 4] | 366 µM | 61.8 µM | 5.9 | 61.9 µM | 
6 | CCOC(=O)c1cnn2c(-c3ccc(Cl)cc3)nc(N3CCCCC3)nc12 [Compound 5] | 87.5 µM |  | 31.2 | 2.8 µM | 
7 | CCOC(=O)c1cnn2c(-c3ccccc3)nc(NCCc3ccccc3)nc12 [Compound 6] |  |  | 2.5 |  | 
8 | CCOC(=O)c1cnn2c(-c3ccc(Br)cc3)nc(N3CCCC3)nc12 [Compound 7] | 279 µM |  | 10.6 | 26.1 µM | 
9 | O=C(NCc1ccccc1)c1cnn2c(-c3ccccc3)nc(NCc3ccccc3)nc12 [Compound 8] | 400 µM | 55 µM | 7.2 | 55.1 µM | 
10 | O=C(NCCc1ccccc1)c1cnn2c(-c3ccccc3)nc(NCCc3ccccc3)nc12 [Compound 9] | 578 µM | 44.2 µM | 13.0 | 44.2 µM | 
11 | O=C(NCCc1ccccc1)c1cnn2c(-c3ccc(Cl)cc3)nc(NCCc3ccccc3)nc12 [Compound 10] | 343 µM | 60.7 µM | 5.6 | 60.8 µM | 
12 | NC(=O)c1nc(F)c[nH]c1=O [Favipiravir] |  |  |  |  | CC50 [5]: 5260 µM; IC50 [1, 6]: 1380 µM; SI (CC50/IC50) ([1]; standard reference drug): 3.8
13 | CCN(CCO)CCCC(C)Nc1ccnc2cc(Cl)ccc12 (stereo not drawn) [Hydroxy-chloroquine, Hydroxychloroquine] |  |  |  |  | CC50 ([5]; standard reference drug): 356 µM; IC50 [1, 6]: 36.9 µM; SI (CC50/IC50) ([1]; standard reference drug): 9.7
14 | CCC(CC)COC(=O)[C@H](C)N[P@](=O)(OC[C@H]1O[C@@](C#N)(c2ccc3c(N)ncnn23)[C@H](O)[C@@H]1O)Oc1ccccc1 [Remdesivir] |  |  |  |  | CC50 ([5]; reference drug): 58.1 µM; IC50 ([1]; reference drug): 3.38 µM
